Among the data in patent US7749996B2, “Heterotricyclic metalloprotease inhibitors” (Alantos Pharmaceutical Holdings, Inc., priority 2006, dated 2010) are IC50 values, retold here.

Some results are limits rather than exact numbers.

Common to all, as to assay type: biochemical
Assay [1] concerns the target T1, catalytic domain of MMP-13 enzyme (Homo sapiens, UniProt P45452).
T1 construct: stock solution of catalytic domain of MMP-13 enzyme (produced by Alantos or commercially available from Invitek (Berlin), Cat.# 30100812); purchased Invitek (Berlin) 30100812
Nature of the assay: Assay for determining MMP-13 inhibition (fluorescent substrate). Conditions: Table 1, activity group. The protocol: The typical assay for MMP-13 activity is carried out in assay buffer comprised of 50 mM Tris, pH 7.5, 150 mM NaCl, 5 mM CaCl2 and 0.05% Brij-35. Different concentrations of tested compounds are prepared in assay buffer in 50 μL aliquots. […] The mixture of enzyme and compound in assay buffer is thoroughly mixed and incubated for 10 min at room temperature. […] The time-dependent increase in fluorescence is measured at the 320 nm excitation and 390 nm emission by automatic plate multireader. The IC50 values are calculated from the initial reaction rates.

In a further assay the target is T2, activated MMP-8 enzyme (Homo sapiens, UniProt P22894).
T2 construct: purchased Calbiochem 444229
T2 sequence (P22894 101-467): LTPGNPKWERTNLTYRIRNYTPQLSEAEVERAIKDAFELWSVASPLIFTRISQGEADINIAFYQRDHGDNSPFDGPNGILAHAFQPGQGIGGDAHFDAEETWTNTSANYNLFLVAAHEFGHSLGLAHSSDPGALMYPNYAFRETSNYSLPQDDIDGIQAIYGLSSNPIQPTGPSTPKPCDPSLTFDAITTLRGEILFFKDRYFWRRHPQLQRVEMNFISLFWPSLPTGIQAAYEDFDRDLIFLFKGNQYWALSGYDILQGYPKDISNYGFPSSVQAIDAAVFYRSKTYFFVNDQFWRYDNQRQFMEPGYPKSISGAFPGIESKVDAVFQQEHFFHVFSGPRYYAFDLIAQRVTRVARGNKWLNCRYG
The experiment in a line: Assay for determining MMP-8 inhibition (fluorescent substrate). As to conditions: Table 2, activity group. On the procedure:
The typical assay for MMP-8 activity is carried out in assay buffer comprised of 50 mM Tris, pH 7.5, 150 mM NaCl, 5 mM CaCl2 and 0.05% Brij-35. Different concentrations of tested compounds are prepared in assay buffer in 50 μL aliquots. […] The mixture of enzyme and compound in assay buffer is thoroughly mixed and incubated for 10 min at 37° C. […] The time-dependent increase in fluorescence is measured at the 320 nm excitation and 390 nm emission by an automatic plate multireader at 37° C. The IC50 values are calculated from the initial reaction rates.

Assay [2] has as its target T3, catalytic domain of MMP-3 enzyme (Homo sapiens, UniProt P08254).
T3 construct: stock solution of the catalytic domain of MMP-3 enzyme (Biomol, Cat. No. SE-109); purchased Biomol SE-109
Nature of the assay: Assay for determining MMP-3 inhibition (NFF-3 fluorescent substrate). Conditions: Table 3, activity group. The protocol:
The typical assay for MMP-3 activity is carried out in assay buffer comprised of 50 mM MES, pH 6.0, 10 mM CaCl2 and 0.05% Brij-35. Different concentrations of tested compounds are prepared in assay buffer in 50 μL aliquots. […] The mixture of enzyme and compound in assay buffer is thoroughly mixed and incubated for 10 min at room temperature. […] The time-dependent increase in fluorescence is measured at the 330 nm excitation and 390 nm emission by an automatic plate multireader. The IC50 values are calculated from the initial reaction rates.

T3 sequence (P08254 100-272 limits assumed): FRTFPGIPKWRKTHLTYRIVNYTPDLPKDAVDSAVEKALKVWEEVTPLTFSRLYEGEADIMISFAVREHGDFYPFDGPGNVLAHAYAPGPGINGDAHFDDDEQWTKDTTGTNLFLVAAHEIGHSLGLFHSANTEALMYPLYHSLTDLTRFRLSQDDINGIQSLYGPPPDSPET

Regarding `CC(=O)N1CCc2c(sc3nc(C(=O)NCc4ccc5c(c4)CN(c4c(N)c(=O)c4=O)CC5)[nH]c(=O)c23)C1` [2/95], the concentration for half-maximal inhibition (IC50) in assay [1] was below 0.1 µM; on activated MMP-8 enzyme, below 0.25 µM; in assay [2] it was 0.25 to 20 µM.

Regarding `O=C1COc2ccc(CNC(=O)c3nc4sc5c(c4c(=O)[nH]3)CCS(=O)(=O)C5)cc2N1` [2/103], the IC50 in assay [1] was below 0.1 µM; on activated MMP-8 enzyme, below 0.25 µM; in assay [2], below 0.25 µM.

For `Nc1c(N2CCc3ccc(CNC(=O)c4nc5sc6c(c5c(=O)[nH]4)CCS(=O)(=O)C6)cc3C2)c(=O)c1=O` [2/104], the IC50 (against activated MMP-8 enzyme; in assay [2]) was below 0.25 µM in each case.

`COc1ccc2c(c1)CCc1sc3nc(C(=O)NCc4ccc5c(c4)NC(=O)CO5)[nH]c(=O)c3c1-2` [2/107]: the figures for the IC50 (in assay [1]; against activated MMP-8 enzyme; in assay [2]) were below 0.1 µM, below 0.25 µM and 0.25 to 20 µM, respectively.

Consider `CC1SCc2sc3nc(C(=O)NCc4ccc5c(c4)CN(c4c(N)c(=O)c4=O)CC5)[nH]c(=O)c3c21` (stereo not drawn) [2/132], for which the values for the half-inhibitory concentration (IC50) (in assay [1]; on activated MMP-8 enzyme; in assay [2]) were below 0.1 µM, below 0.25 µM and 0.25 to 20 µM, respectively.

For the compound `CC(C)(C)OC(=O)N1CCc2sc3nc(C(=O)NCc4ccc5c(c4)NC(=O)CO5)[nH]c(=O)c3c2CC1` [2/171], the results for the IC50 (in assay [1]; at activated MMP-8 enzyme; in assay [2]) were below 0.1 µM, below 0.25 µM and 0.25 to 20 µM, respectively.

With `O=C1COc2ccc(CNC(=O)C3NC(=O)c4c(sc5c4CCCN(CC4CCCCO4)C5=O)N3)cc2N1` (stereo not drawn) [2/188], the IC50 in assay [1] is below 0.1 µM; against activated MMP-8 enzyme it was below 0.25 µM; in assay [2], 0.25 to 20 µM.

Consider `CCOC(=O)C1CCc2sc3nc(C(=O)NCc4ccc5c(c4)CN(c4c(N)c(=O)c4=O)CC5)[nH]c(=O)c3c2C1` (stereo not drawn) [2/209], for which the IC50 in assay [1] was below 0.1 µM; at activated MMP-8 enzyme, below 0.25 µM; in assay [2], 0.25 to 20 µM.

As for `O=C1COc2ccc(CNC(=O)c3nc4sc5c(c4c(=O)[nH]3)CCOCC5)cc2N1` [2/211], the figures for the IC50 (in assay [1]; on activated MMP-8 enzyme; in assay [2]) were below 0.1 µM, below 0.25 µM and 0.25 to 20 µM, respectively.

Regarding `O=C1COc2ccc(CNC(=O)c3nc4sc5c(c4c(=O)[nH]3)CC(C(=O)O)C5)cc2N1` (stereo not drawn) [4/15], the IC50 in assay [1] is below 0.1 µM; on activated MMP-8 enzyme it was below 0.25 µM; in assay [2], 0.25 to 20 µM.

As for `O=C(O)CNC(=O)C1CCc2sc3nc(C(=O)NCc4ccc5c(c4)NC(=O)CO5)[nH]c(=O)c3c21` (stereo not drawn) [15/2], the IC50 was below 0.1 µM in assay [1], below 0.25 µM against activated MMP-8 enzyme and 0.25 to 20 µM in assay [2].

Consider `CC1c2c(sc3nc(C(=O)NCc4ccc5c(c4)NC(=O)CO5)[nH]c(=O)c23)CS1(=O)=O` (stereo not drawn) [22/2], for which the concentration for half-maximal inhibition (IC50) is below 0.1 µM in assay [1], 0.25 to 20 µM on activated MMP-8 enzyme and 0.25 to 20 µM in assay [2].

For `CS(=O)(=O)N1Cc2sc3nc(C(=O)NCc4ccc5c(c4)NC(=O)CO5)[nH]c(=O)c3c2C1` [42/2], the IC50 is below 0.1 µM in assay [1], below 0.25 µM against activated MMP-8 enzyme and below 0.25 µM in assay [2].

On to `O=C(O)CC1CCCc2sc3nc(C(=O)NCc4ccc5c(c4)NC(=O)CO5)[nH]c(=O)c3c21` (stereo not drawn) [Example 3], for which the IC50 in assay [1] is below 0.1 µM; against activated MMP-8 enzyme it was 0.25 to 20 µM; in assay [2] it was 0.25 to 20 µM.

Turning to `O=C(O)CNC(=O)CC1CCCc2sc3nc(C(=O)NCc4ccc5c(c4)NC(=O)CO5)[nH]c(=O)c3c21` (stereo not drawn) [Example 15], the IC50 is below 0.1 µM in assay [1], below 0.25 µM against activated MMP-8 enzyme and 0.25 to 20 µM in assay [2].

Turning to `N#CC1CCc2sc3nc(C(=O)NCc4ccc5c(c4)NC(=O)CO5)[nH]c(=O)c3c21` (stereo not drawn) [Example 19], the IC50 in assay [1] was below 0.1 µM; at activated MMP-8 enzyme it was below 0.25 µM; in assay [2] it was 0.25 to 20 µM.

For the compound `O=C1COc2ccc(CNC(=O)c3nc4sc5c(c4c(=O)[nH]3)CCCS(=O)(=O)C5)cc2N1` [Example 22/1], the IC50 was below 0.1 µM in assay [1], below 0.25 µM against activated MMP-8 enzyme and 0.25 to 20 µM in assay [2].

In the case of `O=C1COc2ccc(CNC(=O)c3nc4sc5c(c4c(=O)[nH]3)CCCS5(=O)=O)cc2N1` [Example 22], the IC50 in assay [1] is below 0.1 µM; on activated MMP-8 enzyme, 0.25 to 20 µM; in assay [2], 0.25 to 20 µM.

With `O=C1COc2ccc(CNC(=O)c3nc4sc5c(c4c(=O)[nH]3)CCC[S+]([O-])C5)cc2N1` (stereo not drawn) [Example 26], the IC50 was below 0.1 µM in assay [1], below 0.25 µM against activated MMP-8 enzyme and 0.25 to 20 µM in assay [2].

Regarding `Cc1snc2sc3c(=O)[nH]c(C(=O)NCc4ccc5c(c4)NC(=O)CO5)nc3c12` [Example 39/7], the IC50 lay within 0.1 to 20 µM in assay [1], 0.25 to 20 µM against activated MMP-8 enzyme and 0.25 to 20 µM in assay [2].

Take `O=C1COc2ccc(CNC(=O)c3nc4sc5c(c4c(=O)[nH]3)CN(C(=O)CC(F)(F)F)C5)cc2N1` [Example 42/1]: the IC50 (against activated MMP-8 enzyme; in assay [2]) was 0.25 to 20 µM each time.

Regarding `O=C1COc2ccc(CNC(=O)c3nc4sc5c(c4c(=O)[nH]3)CN(c3ncccn3)C5)cc2N1` [Example 43], the IC50 in assay [1] is below 0.1 µM; in assay [2], below 0.25 µM.

One may read the IC50 as the concentration at which inhibition is half-maximal. Higher therefore signals a need for much substance.
